In patent US6949533B2, “6,7-Oxygenated steroids and uses related thereto” (Inflazyme Pharmaceuticals Ltd., priority 1996, dated 2005):

Assays:
NF-κB = NF-κB gel shift binding assay in TPA-stimulated RBL-2H3 cells; assay type: cell-based; settings: Rattus norvegicus, compound 1 μM, 2 hours preincubation, read-out: Percent Inhibition of Response to TPA (0.1 μM)
rabbit platelets = assay: PAF-induced aggregation of rabbit platelets; assay type: cell-based; settings: Oryctolagus cuniculus, Platelet; 80 μM compound, 5 min preincubation; PAF-stimulated rabbit platelets (title: 0.1 nM PAF); read-out: % Inhibition at 80 μM
From the text: Within the present invention, it was discovered that the polyhydroxylated steroids as well as intermediates described in previous sections inhibited the aggregation of platelets caused by platelet activating factor (PAF). PAF is a local mediator of thrombosis and prevention of the formation of blood clots has direct implication in the treatment of thrombosis and associated cardiovascular diseases. The assay system used to evaluate the ability of compounds to inhibit the aggregation of platelets in response to exogenous stimuli is indicative of anti-thrombotic or thrombolytic activity.
Platelets were isolated from rabbit blood and prepared at a density of 2.4×10^8 cells/ml in Tyrodes buffer (pH 7.2) containing Ca^2+. Platelets were incubated with each compound for 5 min at 37° C. prior to stimulation. Platelets were stimulated with 1 nM platelet activating factor (PAF; EC75) in the presence of each of the compounds and aggregation was monitored for 5 min. Compounds were solubilized in dimethylsulfoxide (DMSO) and aggregation was measured as a percentage of the response to 1 nM PAF obtained in the presence of the appropriate concentration of DMSO. The degree of inhibition caused by each sample was calculated using the control response in the presence of DMSO equal to 100%.

[1] = system: passively sensitized rat mast cells (RBL-2H3); assay: antigen-induced release of hexosaminidase from RBL-2H3 cells; assay type: cell-based; settings: Rattus norvegicus, RBL-2H3, 25 μM compound; antigen-induced hexosaminidase release; read-out: Percentage Inhibition (mean) RBL-2H3 Cells
Summary of the method: (§1)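 RBL-2H3 and MC/9 cells passively sensitized with anti-DNP IgE, incubated 1 h at 37 °C with compound at 25 μM, then challenged 15 min with 0.1 mg/ml DNP-HSA. Released hexosaminidase measured colorimetrically with p-NAG over 1 h at 410 nm; expressed as % of background-corrected antigen response with DMSO alone.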

sensitized guinea pigs = assay: allergen-induced changes in lung resistance and compliance in vivo; parameters: species or system guinea pig
Method: Female Cam Hartley guinea pigs (350-400 g) are sensitized to ovalbumin by exposure of the guinea pigs to a nebulized solution of 1% ovalbumin in saline for 15 minutes. After 10-12 days, the animals are found to be acutely sensitized to the allergen (ovalbumin). Animals are treated by oral gavage, under light halothane anesthesia, with 300 μl polyethyleneglycol-200 (PEG) or 5 mg/Kg of test compound in 300 μl of PEG. Animals are treated once daily for 4 days with the final dose administered 2 hours prior to allergen challenge. Alternatively, compounds were delivered by inhalation, using a Hudson nebulizer driven by 6 psi oxygen, providing a single dose of 50 μg/Kg 20 min prior to challenge.
An animal is anaesthetized using ketamine ([…]; i.p.) and xylazine (10 mg/Kg; i.p.) and 1% halothane during the surgical procedure. A tracheostomy is performed and a water-filled esophageal cannula is inserted prior to positioning the animal in a body plethysmograph. The tracheal cannula is attached to a fixed tracheal cannula in the plethysmograph. Cardiac function is monitored using electrocardiography. The animal is paralyzed using pancuronium bromide (0.8 mg/Kg; i.m.) and ventilated with 3 ml tidal breaths using a Harvard small animal ventilator, at a frequency of 60 breaths per minute. Pulmonary resistance and dynamic lung compliance data are obtained from volume, flow and transpulmonary pressure signals using multipoint analysis.
Pulmonary function is continually monitored throughout the experiment and measurements of lung resistance and lung compliance are made at various time-points (e.g., 0, 1, 2, 3, 4, 5, 10, 20 and 30 min) following antigen challenge. Data is collected on a computer-linked physiological measurement system using DIREC Physiological recording software and analyzed using ANADAT software designed for lung mechanics measurements. This software was obtained from RHT-InfoDat Inc., Montreal, Quebec, Canada.
Once baseline resistance and compliance measurements are obtained, the animal is challenged with 6 breaths of saline. After 10 minutes, during which time no alterations in lung function should occur, the animal is challenged with 6 breaths of 2 or 3% ovalbumin in saline (as the antigen stimulus). Saline and antigen are delivered in each breath using a Hudson nebulizer.

mouse mast cells (MC/9) = assay: antigen-induced release of hexosaminidase from MC/9 cells; assay type: cell-based; settings: Mus musculus, MC9, 25 μM compound, read-out: Percentage Inhibition (mean) MC/9 cells
Summary of the method: as §1

[2] = 5 mg/kg/day for 4 days p.o., 1 min after challenge
[3] = 5 mg/kg/day for 4 days p.o., 3 min after challenge
[4] = 5 mg/kg/day for 4 days p.o., 4 min after challenge
[5] = 5 mg/kg/day for 4 days p.o., 5 min after challenge
[6] = 5 mg/kg/day for 4 days p.o., 10 min after challenge
[7] = 5 mg/kg/day for 4 days p.o., 20 min after challenge
[8] = 5 mg/kg/day for 4 days p.o., 30 min after challenge
[9] = 5 mg/kg/day for 4 days p.o., Baseline
[10] = 5 mg/kg/day for 4 days p.o., OA/10 s

## C/C=C1/CCC2C3C(CC[C@]12C)[C@@]1(C)CC[C@@H](O)CC1[C@@H](O)[C@@H]3O (stereo partly drawn) [Compound 330, 3α,6α,7β-trihydroxy-17(20)-pregnene]
NF-κB
  inhibition at 1 µM: 66%
Rabbit platelets
  inhibition at 80 µM: 20.9%
[1]
  inhibition at 25 µM: 59%
Sensitized guinea pigs; 50 μg/kg inhalation, 3 min after challenge
  Lung Resistance: 0.420 ± 0.051 cm H2O/ml/sec
Sensitized guinea pigs; 50 μg/kg inhalation, 4 min after challenge
  Lung Compliance: 0.145 ± 0.046 ml/cm H2O
Sensitized guinea pigs; [2]
  Lung Compliance: 0.182 ± 0.093 ml/cm H2O
  Lung Resistance: 0.560 ± 0.101 cm H2O/ml/sec
Sensitized guinea pigs; 5 mg/kg/day for 4 days p.o., 2 min after challenge
  Lung Resistance: 0.845 ± 0.201 cm H2O/ml/sec
Sensitized guinea pigs; [3]
  Lung Compliance: 0.133 ± 0.095 ml/cm H2O
  Lung Resistance: 0.887 ± 0.160 cm H2O/ml/sec
Sensitized guinea pigs; [4]
  Lung Compliance: 0.124 ± 0.088 ml/cm H2O
  Lung Resistance: 0.778 ± 0.119 cm H2O/ml/sec
Sensitized guinea pigs; [5]
  Lung Compliance: 0.125 ± 0.087 ml/cm H2O
  Lung Resistance: 0.791 ± 0.139 cm H2O/ml/sec
Sensitized guinea pigs; [6]
  Lung Compliance: 0.150 ± 0.082 ml/cm H2O
  Lung Resistance: 0.661 ± 0.141 cm H2O/ml/sec
Sensitized guinea pigs; [7]
  Lung Compliance: 0.184 ± 0.061 ml/cm H2O
  Lung Resistance: 0.366 ± 0.046 cm H2O/ml/sec
Sensitized guinea pigs; [8]
  Lung Compliance: 0.196 ± 0.061 ml/cm H2O
  Lung Resistance: 0.340 ± 0.037 cm H2O/ml/sec
Sensitized guinea pigs; [9]
  Lung Compliance: 0.318 ± 0.042 ml/cm H2O
  Lung Resistance: 0.275 ± 0.036 cm H2O/ml/sec
Sensitized guinea pigs; [10]
  Lung Compliance: 0.435 ± 0.041 ml/cm H2O
  Lung Resistance: 0.260 ± 0.036 cm H2O/ml/sec
Mouse mast cells (MC/9)
  inhibition at 25 µM: 49%
